Here are results for six compounds from PubChem BioAssay (NCI).

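A five-concentration, 48-hour dose response in 96-well plates underlies each endpoint, interpolated linearly between surrounding concentrations. GI50 is the concentration that inhibits growth by half. TGI: concentration producing complete growth inhibition.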 Bounds are passed on as bounds.

Some test systems named below: LXFL 529 NSCLC; DMS 273 small cell lung; HOP-18 NSCLC; M19-MEL melanoma; KM20L2 colon; XF 498 CNS; DMS 114 small cell lung; SNB-78 CNS; RXF-631 renal.
Experiment in all cases: NCI tumour cell line growth inhibition, 48 h

With `COc1cc2c(oc(=O)c3c4oc([Si](C)(C)C)cc4cc(OC)c23)c2cccc(O)c12`, the TGI in the test with LXFL 529 NSCLC, in the test with DMS 273 small cell lung, with HOP-18 NSCLC, with M19-MEL melanoma, in the test on KM20L2 colon and with XF 498 CNS was above 100 µM throughout. The same compound yielded a TGI in the test with DMS 114 small cell lung above 100 µM.
Consider `O=C(CCc1nnc2s/c(=C\c3ccc(Cl)cc3Cl)c(=O)n12)Nc1cc(Cl)c(Cl)cc1Cl`, for which the TGI in the test on SNB-78 CNS, in the test with LXFL 529 NSCLC, with DMS 273 small cell lung, in the test on HOP-18 NSCLC, with M19-MEL melanoma and in the test on KM20L2 colon was above 100 µM in each case. Moreover, the TGI in the test on RXF-631 renal and in the test with DMS 114 small cell lung was above 100 µM in each case. For the same compound, the GI50 in the test with LXFL 529 NSCLC, in the test with DMS 273 small cell lung, with HOP-18 NSCLC, in the test on M19-MEL melanoma, with KM20L2 colon and in the test on DMS 114 small cell lung was above 100 µM each time.
On to `CC(C)(C)C(=O)Cc1cc2c(cc1C(=O)O)S(=O)(=O)NC(C(C)(C)C)=C2`, for which the TGI with SNB-78 CNS, with LXFL 529 NSCLC, in the test with M19-MEL melanoma and with DMS 114 small cell lung was above 100 µM each time.
`CC(C)OP(=O)(OC(C)C)c1ncn(-c2ccc([N+](=O)[O-])cc2)n1`: the TGI in the test with LXFL 529 NSCLC, with DMS 273 small cell lung, in the test on M19-MEL melanoma, in the test on KM20L2 colon, with XF 498 CNS and with DMS 114 small cell lung was above 100 µM in each case.
Regarding `O=C(Cl)c1cc([N+](=O)[O-])cc([N+](=O)[O-])c1`, the TGI in the test on SNB-78 CNS, in the test on LXFL 529 NSCLC, in the test on DMS 273 small cell lung, in the test on M19-MEL melanoma, in the test with XF 498 CNS and in the test on DMS 114 small cell lung was above 100 µM each time.
Turning to `Cc1cccc2ns[s+]c12`, the TGI was above 100 µM in the test on SNB-78 CNS; above 100 µM in the test on LXFL 529 NSCLC; above 100 µM in the test on DMS 273 small cell lung; above 100 µM in the test with HOP-18 NSCLC; above 100 µM with KM20L2 colon; 58.1 µM in the test on DMS 114 small cell lung.
